Results reported in patent US5378692A, “Method of lowering lipids” (Senju Pharmaceutical Co., Ltd., priority 1992, dated 1995).

Assays:
rat hypertriglyceridemia = experiment: Effect on rat hypertriglyceridemia (Intralipid-induced), serum triglyceride; format: in vivo; details: male Wistar rats; for TG (serum triglyceride): 200 mg/2 ml/kg i.p., Intralipid 2 ml/kg i.v. 0.5 hour after dosing, blood 30 min after injection, mean ± S.E., n = 8-9; for triglyceride (TG) lowering effect (in words): 200 mg/kg i.p., versus control
Description: Intralipid (Otsuka Pharmaceutical Co., Ltd.) was used for induction of hypertriglyceridemia in rats.
The treatment groups were intraperitoneally dosed with glutathione (hereinafter referred to as GSH), S-(diethyl α, β-dicarboxyethyl)glutathione (hereinafter, DCE-Et-GS), S-(diethyl α, β-dicarboxyethyl)glutathione isopropyl ester (hereinafter, DCE-Et-GS-iPr) and S-(α, β-dicarbamoylethyl)glutathione (hereinafter, DCE-NH2 -GS), each dissolved in physiological saline. The dose was invariously 200 mg/2 ml/kg. The control group received 2 ml/kg of physiological saline i.p. The normal group was also provided.
Intralipid 2 ml/kg was injected into the tail vein 0.5 hour after administration of the test substance. Thirty minutes after the injection, the blood was collected and the serum triglyceride (TG) was determined.

[1] = tested on: rat streptozotocin diabetes; experiment: Effect on rat streptozotocin diabetes, blood lipids; format: in vivo; details: STZ-diabetic male SD rats, 100 mg/2 ml/kg i.p. once a day, mean, n = 4-7; for Total Cholesterol Week 4: week 4, tail blood; for Total Cholesterol Week 8: week 8, tail blood; for Total Cholesterol Week 10: week 10, abdominal aorta blood
Description: Using male 4-week-old SD rats, streptozotocin (STZ), 70 mg/kg, was injected into the tail vein to construct a diabetes model. As test substances, DCE-GS, DCE-Et-GS and DCE-Et-GS-iPr, each dissolved in physiological saline, were respectively administered intraperitoneally in doses of 100 mg/2 ml/kg once a day. The control group received physiological saline, 2 ml/kg, i.p. The normal group was also provided.
At weeks 4 and 8 of treatment, the blood was collected from the tail and the total cholesterol was determined. Furthermore, at week 10, the blood was collected from the abdominal aorta for blood biochemical tests.

[2] = tested on: rat alcoholic fatty liver; details: male Wistar rats; for TG (liver triglyceride): 1000 mg/5 ml/kg p.o., 38% ethyl alcohol 10 ml/kg p.o. 1 hour later, liver excised 6 hours after alcohol, mean ± S.E., n = 8-9
Description: Male Wistar rats, 7 weeks old, were used in fasted state.
The experiment was performed in a control group, drug treatment groups and a normal group, each consisting of 8 to 9 animals.
The treatment groups were orally dosed with GSH and DCE-Et-GS-iPr, each dissolved in distilled water, at the dose level of 1000 mg/5 ml/kg. The control group received 5 ml/kg of distilled water p.o. The normal group was also provided.
One hour after administration of the test substance, 10 ml/kg of 38% ethyl alcohol was orally administered to the animals for induction of fatty liver. The liver was excised 6 hours after administration of ethyl alcohol and the triglyceride (TG) was determined by the acetylacetone method.

SMILES | TG (serum triglyceride) (rat hypertriglyceridemia) [mg/dL] | triglyceride (TG) lowering effect (in words) (rat hypertriglyceridemia) | Total Cholesterol Week 4 [1] [mg/dL] | Total Cholesterol Week 8 [1] [mg/dL] | Total Cholesterol Week 10 [1] [mg/dL] | TG (blood triglycerides) ([1]; week 10) [mg/dL] | VLDL ([1]; week 10) [mg/dL] | β-lipoproteins ([1]; week 10) [mg/dL] | TG (liver triglyceride) [2] [mg/g liver] | triglyceride (TG) lowering effect (in words) ([2]; 1000 mg/kg p.o., versus control)
NC(=O)CC(SC[C@H](NC(=O)CC[C@H](N)C(=O)O)C(=O)NCC(=O)O)C(N)=O (stereo partly drawn) [DCE-NH2 -GS, S-(α, β-dicarbamoylethyl)glutathione] | 72.4 ± 6 | Significant triglyceride (TG) lowering effects |  |  |  |  |  |  |  | 
CCOC(=O)CC(SC[C@H](NC(=O)CC[C@H](N)C(=O)O)C(=O)NCC(=O)OC(C)C)C(=O)OCC (stereo partly drawn) [DCE-Et-GS-iPr, S-(diethyl α, β-dicarboxyethyl)glutathione isopropyl ester] | 66.1 ± 11 | Significant triglyceride (TG) lowering effects | 113.9 | 110.5 | 120 | 404 | 106 | 818 | 10.7 ± 0.3 | significant triglyceride (TG) lowering effect
N[C@@H](CCC(=O)N[C@@H](CS)C(=O)NCC(=O)O)C(=O)O [GSH, glutathione, reference compound] | 150.4 ± 12 |  |  |  |  |  |  |  | 13.0 ± 0.4 | 
N[C@@H](CCC(=O)N[C@@H](CSC(CC(=O)O)C(=O)O)C(=O)NCC(=O)O)C(=O)O (stereo partly drawn) [DCE-GS, S-(α, β-dicarboxyethyl)glutathione] |  |  | 109.8 | 118.2 | 95 | 406 |  | 759 |  | 
